HELM strings list units from the 5' end as sugar, base in round brackets, then linkage (d deoxyribose, r ribose, m 2'-O-methyl, p phosphodiester). Strings are as the collection lists them; they lack the last nucleoside at the 3' end of the tested compound. [moe] = 2'-O-(2-methoxyethyl) (MOE); [sp] = phosphorothioate linkage; [m5C] = 5-methylcytosine

For this series, the target named is SMN2. In words: mouse, dose not given. The settings on record: ASO.
Substance “RNA1{[moe]([m5C])[sp].[moe](T)[sp].[moe](T)[sp].[moe](T)[sp].[moe]([m5C])[sp].[moe](A)[sp].[moe](T)[sp].[moe](A)[sp].[moe](A)[sp].[moe](T)[sp].[moe](G)[sp].[moe]([m5C])[sp].[moe](T)[sp].[moe](G)[sp].[moe](G)}$$$$ (last 3' nucleoside missing)” came in with a 3 h FOB score of 2.88 score 0-7.
The result for “RNA1{[moe](A)[sp].[moe](T)[sp].[moe](T)[sp].[moe]([m5C])[sp].[moe](A)[sp].[moe]([m5C])[sp].[moe](T)[sp].[moe](T)[sp].[moe](T)[sp].[moe]([m5C])[sp].[moe](A)[sp].[moe](T)[sp].[moe](A)[sp].[moe](A)[sp].[moe](T)p.[moe](G)[sp].[moe]([m5C])p.[moe](T)[sp].[moe](G)}$$$$ (last 3' nucleoside missing)” reads 2 score 0-7; that for “RNA1{[moe](T)p.[moe](T)[sp].[moe]([m5C])[sp].[moe](A)[sp].[moe]([m5C])[sp].[moe](T)[sp].[moe](T)[sp].[moe](T)[sp].[moe]([m5C])[sp].[moe](A)[sp].[moe](T)[sp].[moe](A)[sp].[moe](A)[sp].[moe](T)[sp].[moe](G)[sp].[moe]([m5C])[sp].[moe](T)[sp].[moe](G)[sp].[moe](G)}$$$$ (last 3' nucleoside missing)”, 3.25 score 0-7; that for “RNA1{[moe](A)[sp].[moe]([m5C])[sp].[moe](T)[sp].[moe](T)[sp].[moe](T)p.[moe]([m5C])p.[moe](A)p.[moe](T)p.[moe](A)[sp].[moe](A)[sp].[moe](T)[sp].[moe](G)[sp].[moe]([m5C])[sp].[moe](T)[sp].[moe](G)[sp].[moe](G)}$$$$ (last 3' nucleoside missing)”, 0 score 0-7.
In the case of “RNA1{[moe]([m5C])[sp].[moe](A)[sp].[moe]([m5C])[sp].[moe](T)[sp].[moe](T)[sp].[moe](T)[sp].[moe]([m5C])[sp].[moe](A)[sp].[moe](T)p.[moe](A)p.[moe](A)p.[moe](T)p.[moe](G)[sp].[moe]([m5C])[sp].[moe](T)[sp].[moe](G)[sp].[moe](G)}$$$$ (last 3' nucleoside missing)” it was 0 score 0-7.
As for “RNA1{[moe]([m5C])[sp].[moe](A)[sp].[moe]([m5C])[sp].[moe](T)[sp].[moe](T)[sp].[moe](T)[sp].[moe]([m5C])p.[moe](A)[sp].[moe](T)[sp].[moe](A)[sp].[moe](A)[sp].[moe](T)[sp].[moe](G)[sp].[moe]([m5C])[sp].[moe](T)p.[moe](G)[sp].[moe](G)}$$$$ (last 3' nucleoside missing)”, the 3 h FOB score is 0 score 0-7.
Substance “RNA1{[moe](T)[sp].[moe]([m5C])p.[moe](A)p.[moe]([m5C])[sp].[moe](T)[sp].[moe](T)[sp].[moe](T)[sp].[moe]([m5C])[sp].[moe](A)[sp].[moe](T)[sp].[moe](A)[sp].[moe](A)[sp].[moe](T)[sp].[moe](G)[sp].[moe]([m5C])[sp].[moe](T)[sp].[moe](G)}$$$$ (last 3' nucleoside missing)” gave a 3 h FOB score of 4.75 score 0-7.
The result for “RNA1{[moe](A)[sp].[moe]([m5C])[sp].[moe](T)p.[moe](T)p.[moe](T)p.[moe]([m5C])p.[moe](A)[sp].[moe](T)[sp].[moe](A)[sp].[moe](A)[sp].[moe](T)[sp].[moe](G)[sp].[moe]([m5C])[sp].[moe](T)[sp].[moe](G)[sp].[moe](G)}$$$$ (last 3' nucleoside missing)” reads 0 score 0-7; that for “RNA1{[moe](A)p.[moe](T)[sp].[moe]([m5C])[sp].[moe](A)[sp].[moe]([m5C])[sp].[moe](T)[sp].[moe](T)[sp].[moe](T)[sp].[moe]([m5C])[sp].[moe](A)[sp].[moe](T)[sp].[moe](A)[sp].[moe](A)[sp].[moe](T)[sp].[moe](G)[sp].[moe]([m5C])[sp].[moe](T)[sp].[moe](G)}$$$$ (last 3' nucleoside missing)”, 4 score 0-7; that for “RNA1{[moe](A)[sp].[moe](T)p.[moe](T)[sp].[moe]([m5C])[sp].[moe](A)[sp].[moe]([m5C])[sp].[moe](T)[sp].[moe](T)[sp].[moe](T)[sp].[moe]([m5C])[sp].[moe](A)[sp].[moe](T)[sp].[moe](A)[sp].[moe](A)[sp].[moe](T)[sp].[moe](G)[sp].[moe]([m5C])p.[moe](T)[sp].[moe](G)}$$$$ (last 3' nucleoside missing)”, 2 score 0-7.
“RNA1{[moe]([m5C])[sp].[moe](A)p.[moe]([m5C])p.[moe](T)p.[moe](T)[sp].[moe](T)[sp].[moe]([m5C])[sp].[moe](A)[sp].[moe](T)[sp].[moe](A)[sp].[moe](A)[sp].[moe](T)[sp].[moe](G)p.[moe]([m5C])p.[moe](T)p.[moe](G)[sp].[moe](G)}$$$$ (last 3' nucleoside missing)” yielded a 3 h FOB score of 0 score 0-7.
In the case of “RNA1{[moe]([m5C])[sp].[moe](A)[sp].[moe]([m5C])[sp].[moe](T)[sp].[moe](T)p.[moe](T)[sp].[moe]([m5C])[sp].[moe](A)[sp].[moe](T)[sp].[moe](A)[sp].[moe](A)[sp].[moe](T)[sp].[moe](G)[sp].[moe]([m5C])[sp].[moe](T)[sp].[moe](G)[sp].[moe](G)}$$$$ (last 3' nucleoside missing)” it was 0.5 score 0-7; in that of “RNA1{[moe]([m5C])[sp].[moe](A)[sp].[moe]([m5C])[sp].[moe](T)[sp].[moe](T)[sp].[moe](T)[sp].[moe]([m5C])[sp].[moe](A)[sp].[moe](T)[sp].[moe](A)[sp].[moe](A)p.[moe](T)[sp].[moe](G)[sp].[moe]([m5C])[sp].[moe](T)p.[moe](G)[sp].[moe](G)}$$$$ (last 3' nucleoside missing)”, 0 score 0-7; in that of “RNA1{[moe](T)[sp].[moe](T)[sp].[moe]([m5C])[sp].[moe](A)[sp].[moe]([m5C])[sp].[moe](T)[sp].[moe](T)[sp].[moe](T)[sp].[moe]([m5C])[sp].[moe](A)[sp].[moe](T)[sp].[moe](A)[sp].[moe](A)[sp].[moe](T)[sp].[moe](G)[sp].[moe]([m5C])[sp].[moe](T)[sp].[moe](G)}$$$$ (last 3' nucleoside missing)”, 3.75 score 0-7.
In the case of “RNA1{[moe]([m5C])[sp].[moe](A)[sp].[moe]([m5C])[sp].[moe](T)[sp].[moe](T)[sp].[moe](T)[sp].[moe]([m5C])[sp].[moe](A)[sp].[moe](T)p.[moe](A)[sp].[moe](A)[sp].[moe](T)[sp].[moe](G)[sp].[moe]([m5C])[sp].[moe](T)p.[moe](G)[sp].[moe](G)}$$$$ (last 3' nucleoside missing)” it was 0 score 0-7; in that of “RNA1{[moe]([m5C])[sp].[moe](T)p.[moe](T)p.[moe](T)p.[moe]([m5C])p.[moe](A)[sp].[moe](T)[sp].[moe](A)[sp].[moe](A)[sp].[moe](T)[sp].[moe](G)p.[moe]([m5C])p.[moe](T)p.[moe](G)[sp].[moe](G)}$$$$ (last 3' nucleoside missing)”, 0 score 0-7.
The substance “RNA1{[moe]([m5C])[sp].[moe](A)[sp].[moe]([m5C])[sp].[moe](T)[sp].[moe](T)[sp].[moe](T)[sp].[moe]([m5C])[sp].[moe](A)p.[moe](T)p.[moe](A)[sp].[moe](A)[sp].[moe](T)[sp].[moe](G)[sp].[moe]([m5C])[sp].[moe](T)[sp].[moe](G)[sp].[moe](G)}$$$$ (last 3' nucleoside missing)” displayed a 3 h FOB score of 0 score 0-7.
In the case of “RNA1{[moe]([m5C])[sp].[moe](T)[sp].[moe](T)[sp].[moe](T)[sp].[moe]([m5C])[sp].[moe](A)[sp].[moe](T)[sp].[moe](A)[sp].[moe](A)[sp].[moe](T)p.[moe](G)p.[moe]([m5C])p.[moe](T)p.[moe](G)[sp].[moe](G)}$$$$ (last 3' nucleoside missing)” it was 0 score 0-7; in that of “RNA1{[moe]([m5C])[sp].[moe](A)p.[moe]([m5C])[sp].[moe](T)p.[moe](T)[sp].[moe](T)[sp].[moe]([m5C])[sp].[moe](A)[sp].[moe](T)[sp].[moe](A)[sp].[moe](A)[sp].[moe](T)[sp].[moe](G)[sp].[moe]([m5C])[sp].[moe](T)[sp].[moe](G)[sp].[moe](G)}$$$$ (last 3' nucleoside missing)”, 0 score 0-7; in that of “RNA1{[moe](T)[sp].[moe](T)[sp].[moe]([m5C])[sp].[moe](A)[sp].[moe]([m5C])[sp].[moe](T)[sp].[moe](T)[sp].[moe](T)[sp].[moe]([m5C])p.[moe](A)[sp].[moe](T)[sp].[moe](A)[sp].[moe](A)[sp].[moe](T)[sp].[moe](G)[sp].[moe]([m5C])[sp].[moe](T)[sp].[moe](G)}$$$$ (last 3' nucleoside missing)”, 3.75 score 0-7.
In the case of “RNA1{[moe]([m5C])[sp].[moe](A)[sp].[moe]([m5C])[sp].[moe](T)[sp].[moe](T)[sp].[moe](T)[sp].[moe]([m5C])[sp].[moe](A)[sp].[moe](T)[sp].[moe](A)[sp].[moe](A)[sp].[moe](T)p.[moe](G)p.[moe]([m5C])[sp].[moe](T)[sp].[moe](G)[sp].[moe](G)}$$$$ (last 3' nucleoside missing)”, the 3 h FOB score came to 0 score 0-7.
The result for “RNA1{[moe](T)[sp].[moe]([m5C])[sp].[moe](A)[sp].[moe]([m5C])p.[moe](T)[sp].[moe](T)[sp].[moe](T)[sp].[moe]([m5C])[sp].[moe](A)[sp].[moe](T)[sp].[moe](A)[sp].[moe](A)[sp].[moe](T)[sp].[moe](G)[sp].[moe]([m5C])[sp].[moe](T)[sp].[moe](G)}$$$$ (last 3' nucleoside missing)” reads 3.5 score 0-7.
The result for “RNA1{[moe]([m5C])[sp].[moe](A)p.[moe]([m5C])[sp].[moe](T)[sp].[moe](T)[sp].[moe](T)[sp].[moe]([m5C])[sp].[moe](A)[sp].[moe](T)[sp].[moe](A)p.[moe](A)[sp].[moe](T)[sp].[moe](G)[sp].[moe]([m5C])[sp].[moe](T)[sp].[moe](G)[sp].[moe](G)}$$$$ (last 3' nucleoside missing)” reads 0 score 0-7.

The record behind these values is the OligoGym collection.
